Laboratory results reported in US8445636B2, “Antimicrobial and anticancer lipopeptides” (Yeda Research & Development Co. Ltd., priority 2003, dated 2013).
Values after ≈ are worked out from the molar mass of the structure shown. Non-standard residues stand in square brackets, D forms with d. Residues, ends and D or L forms follow the SMILES beside them. *: point of attachment. Palmitoyl = CCCCCCCCCCCCCCCC(=O)*

What was measured:
Type in all cases: cell-based
[1] = tested on: Staphylococcus aureus ATCC 6538P; details: ATCC 6538, pH 7.4
Experimental: (§1) The antibacterial activity of the lipopeptides was examined in sterile 96-well plates (Nunc F96 microtiter plates) in a final volume of 100 μl as follows: Aliquots (50 μl) of a suspension containing bacteria at concentration of 1×10^6 Colony-Forming Units (CFU)/ml in culture LB (Lauria broth) medium (pH 7.4 or pH 5.5) were added to 50 μl of water containing the lipopeptide in serial 2-fold dilutions in water. Adjustment of the pH was done by diluted solutions of HCl and NaOH Inhibition of growth was determined by measuring the absorbance at 600 nm with a Microplate autoreader E1309 (Bio-Tek Instruments), after an incubation time of 18-20 h at 37° C. Antibacterial activities were expressed as the minimal inhibitory concentration (MIC), the concentration at which 100% inhibition of growth was observed after 18-20 h of incubation. The bacteria used were: Escherichia coli ATCC 25922, Acinetobacter baumannii ATCC 19606, Pseudomonas aeruginosa ATCC 27853, Staphylococcus aureus ATCC 6538P, Enterococcus faecalis ATCC 29212, Enterobacter cloacae ATCC 49141. The antibacterial activity of lipopeptides was also examined against resistant bacteria: methicilin-resistant Staphylococcus aureus (MRSA) ATCC 700698 and vancomycin-resistant Enterococcus faecium (VRE) ATCC 700221. If not indicated otherwise, the bacterial growth was detected at pH 7.4.

[2] = tested on: Acinetobacter baumannii ATCC 19606; details: ATCC 19606, pH 7.4
Experimental: as §1

[3] = tested on: Aspergillus fumigatus ATCC 26430; experiment: microbe, parasite or virus in culture; details: ATCC 26430, pH 7.4; read-out: Minimal Inhibitory Concentration, Aspergillus Fomigatus (ATCC 26430)
E. coli D21 = details: D21, pH 7.4
[4] = tested on: Candida albicans ATCC 10231; experiment: microbe, parasite or virus in culture; details: ATCC 10231, pH 7.4; read-out: Minimal Inhibitory Concentration, Candida Albicans (ATCC 10231)
Experimental: The antifungal activity of the lipopeptides was examined in sterile 96-well plates (Nunc F96 microtiter plates) in a final volume of 200 μL as follows: 100 µl of a suspension containing fungi at a concentration of 1×10^4 Colony-Forming Units (CFU)/ml in culture medium (RPMI 1640, 0.165 M MOPS with L-glutamine, without NaHCO3) at pH 7.4 or pH 5.5 (adjustment of the pH was done by diluted solutions of HCl and NaOH) were added to 100 μl of water containing the peptide in serial 2-fold dilutions in water. The fungi were incubated in the presence of the lipopeptides for 24-48 h at 35° C. in a Binder KB115 incubator under agitation. Growth inhibition was determined by measuring the absorbance at 620 nm with a Microplate autoreader E1309 (Bio-Tek Instruments). Antifungal activity is expressed as the minimal inhibitory concentration (MIC), the concentration at which 100% inhibition of fungi growth was observed after the incubation time mentioned above. The fungi used were: Aspergillus niger ATCC 9642, Candida albicans ATCC 10231 and Cryptococcus neoformans ATCC 66031. If not indicated otherwise, the fungi growth was detected at pH 7.4.

[5] = tested on: Cryptococcus neoformans ATCC MYA-422; experiment: microbe, parasite or virus in culture; details: ATCC MYA-422, pH 7.4; read-out: Minimal Inhibitory Concentration, Cyrptococcus neoformans (ATCC MYA-422)
[6] = tested on: Pseudomonas aeruginosa ATCC 27853; details: ATCC 27853, pH 7.4
Experimental: as §1

In the case of `CCCCCCCCCCCCCC(=O)N[C@@H](CCCCN)C(=O)N[C@@H](CCCCN)C(=O)N[C@@H](CCCCN)C(N)=O` [MYR-KKK], the “Minimal Inhibitory Concentration, S. aureus ATCC 6538P” value [1] is reported as 12.5 µM, the “Minimal Inhibitory Concentration, A. baumannii ATCC 19606” value [2] is reported as over 100 µM and the MIC [3] is reported as 100 µM (≈ 61.2 µg/mL). For the same compound, the “Minimal Inhibitory Concentration, E. coli-D21” value (E. coli D21) was 25 µM, the MIC [4] was over 100 µM and the MIC [5] was 12.5 µM (≈ 7.65 µg/mL).

In the case of `CCCCCCCCCCCCCCCC(=O)N[C@@H](CCC(=O)O)C(=O)N[C@H](CCCCN)C(=O)N[C@@H](CCCCN)C(N)=O` [PA-EKK, Palmitoyl-Glu-D-Lys-Lys-NH2] (Palmitoyl-Glu-[dK]-Lys-NH2), the “Minimal Inhibitory Concentration, S. aureus ATCC 6538P” value [1] is reported as 25 µM, the “Minimal Inhibitory Concentration, A. baumannii ATCC 19606” value [2] is reported as over 100 µM and the “Minimal Inhibitory Concentration, P. aeruginosa ATCC 27853” value [6] is reported as over 100 µM. The MIC [3] was 25 µM (≈ 16 µg/mL), the “Minimal Inhibitory Concentration, E. coli-D21” value (E. coli D21) was 100 µM and the MIC [4] was 25 µM (≈ 16 µg/mL). The MIC [5] was 12.5 µM (≈ 8.01 µg/mL).

`CCCCCCCCCCCCCCCC(=O)N[C@@H](CCC(=O)O)C(=O)N[C@@H](CCCCN)C(=O)N[C@H](CCCCN)C(=O)N[C@@H](CCCCN)C(N)=O` [PA-EKKK, Palmitoyl-Glu-Lys-D-Lys-Lys-NH2] (Palmitoyl-EK[dK]K-NH2) was tested, and the “Minimal Inhibitory Concentration, S. aureus ATCC 6538P” value [1] was 12.5 µM, the “Minimal Inhibitory Concentration, A. baumannii ATCC 19606” value [2] was over 100 µM and the “Minimal Inhibitory Concentration, P. aeruginosa ATCC 27853” value [6] was over 100 µM. The MIC [3] was 12.5 µM (≈ 9.61 µg/mL), the “Minimal Inhibitory Concentration, E. coli-D21” value (E. coli D21) was 25 µM and the MIC [4] was 25 µM (≈ 19.2 µg/mL). The MIC [5] was 6.25 µM (≈ 4.81 µg/mL).

`CCCCCCCCCCCCCCCC(=O)N[C@@H](CCCCN)C(=O)N[C@@H](C)C(=O)N[C@H](C)C(=O)N[C@@H](CCCCN)C(N)=O` [PA-KAAK, Palmitoyl-Lys-Ala-D-Ala-Lys-NH2] (Palmitoyl-KA[dA]K-NH2) was tested, and the “Minimal Inhibitory Concentration, S. aureus ATCC 6538P” value [1] was 6.25 µM, the “Minimal Inhibitory Concentration, A. baumannii ATCC 19606” value [2] was 100 µM and the “Minimal Inhibitory Concentration, P. aeruginosa ATCC 27853” value [6] was 100 µM. For the same compound, the MIC [3] was 12.5 µM (≈ 8.17 µg/mL), the “Minimal Inhibitory Concentration, E. coli-D21” value (E. coli D21) was 6.25 µM and the MIC [4] was 25 µM (≈ 16.3 µg/mL). For the same compound, the MIC [5] was 3.12 µM (≈ 2.04 µg/mL).

For `CCCCCCCCCCCCCCCC(=O)N[C@@H](CCCCN)C(=O)N[C@@H](CCC(=O)O)C(N)=O` [PA-KE] (Palmitoyl-Lys-Glu-NH2), the “Minimal Inhibitory Concentration, S. aureus ATCC 6538P” value [1] was over 100 µM, the “Minimal Inhibitory Concentration, A. baumannii ATCC 19606” value [2] was over 100 µM and the “Minimal Inhibitory Concentration, P. aeruginosa ATCC 27853” value [6] was over 100 µM. The MIC [3] was over 100 µM, the “Minimal Inhibitory Concentration, E. coli-D21” value (E. coli D21) was over 100 µM and the MIC [4] was over 100 µM. The MIC [5] was over 100 µM.
